The values that follow come from patent publication US9938272B2, “Hydrazine compound as blood coagulation factor Xa inhibitor” (NORTH CHINA PHARMACEUTICAL COMPANY., LTD., priority 2014, dated 2018).

For data set [1] the following is noted: cited from earlier work.
The conditions of data set [2]: terminal phase; cited from earlier work.
Data set [3] has as its target rat Factor Xa (Rattus norvegicus (Rat), UniProt Q63207). In words: Rat factor Xa chromogenic assay. Type of data set: biochemical. Particulars: substrate S-2222, read-out: rfXa Ki.
Data set [4] has as its target human Factor Xa (Homo sapiens (Human), UniProt P00742). The data set can be described thus: Human factor Xa chromogenic assay. Type of data set: biochemical. Conditions: substrate S-2222, read-out: hfXa Ki.
The target in data set [5] is prothrombinase (Homo sapiens (Human), UniProt P00742). The data set can be described thus: Prothrombinase assay (thrombin generation). The class given is biochemical. Conditions: human factor Xa with human platelets, prothrombin, substrate S-2238.
The target of data set [6] is human thrombin (Homo sapiens (Human), UniProt P00734). In words: Human thrombin assay. Type of data set: biochemical. Particulars: substrate S-2238.
Data set [7] deals with human trypsin (Homo sapiens, UniProt P07477). The data set can be described thus: Human trypsin assay. The class given is biochemical. Particulars: substrate S-2222.

Sequence of rat Factor Xa (Q63207 232-482): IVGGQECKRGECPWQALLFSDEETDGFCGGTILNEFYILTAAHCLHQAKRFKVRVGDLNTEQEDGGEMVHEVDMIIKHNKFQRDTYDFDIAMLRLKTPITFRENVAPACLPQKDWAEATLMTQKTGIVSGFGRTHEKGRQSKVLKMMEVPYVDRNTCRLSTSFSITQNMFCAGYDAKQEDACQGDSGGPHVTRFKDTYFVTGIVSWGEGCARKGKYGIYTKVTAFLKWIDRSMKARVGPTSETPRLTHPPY
Sequence of rat Factor Xa (Q63207 41-180): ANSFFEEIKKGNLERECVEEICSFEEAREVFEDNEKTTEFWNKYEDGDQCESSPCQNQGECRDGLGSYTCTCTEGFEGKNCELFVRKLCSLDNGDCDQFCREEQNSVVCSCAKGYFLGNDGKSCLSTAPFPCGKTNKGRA
Sequence of human Factor Xa (P00742 235-488): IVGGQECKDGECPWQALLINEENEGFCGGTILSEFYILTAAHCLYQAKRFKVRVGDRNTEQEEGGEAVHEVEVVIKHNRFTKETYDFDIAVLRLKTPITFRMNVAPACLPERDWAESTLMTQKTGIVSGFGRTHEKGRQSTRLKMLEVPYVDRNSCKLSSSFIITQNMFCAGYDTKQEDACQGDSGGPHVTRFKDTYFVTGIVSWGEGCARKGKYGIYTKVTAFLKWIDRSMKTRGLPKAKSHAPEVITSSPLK
Sequence of human Factor Xa (P00742 41-179): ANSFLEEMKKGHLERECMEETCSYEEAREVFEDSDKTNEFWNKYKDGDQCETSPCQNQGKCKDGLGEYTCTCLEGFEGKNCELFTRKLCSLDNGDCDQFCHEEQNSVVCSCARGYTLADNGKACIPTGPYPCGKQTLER
Sequence of prothrombinase (P00742 235-488): as the sequence (P00742 235-488) above
Sequence of prothrombinase (P00742 41-179): as the sequence (P00742 41-179) above
Sequence of prothrombinase (P12259 29-737 partner): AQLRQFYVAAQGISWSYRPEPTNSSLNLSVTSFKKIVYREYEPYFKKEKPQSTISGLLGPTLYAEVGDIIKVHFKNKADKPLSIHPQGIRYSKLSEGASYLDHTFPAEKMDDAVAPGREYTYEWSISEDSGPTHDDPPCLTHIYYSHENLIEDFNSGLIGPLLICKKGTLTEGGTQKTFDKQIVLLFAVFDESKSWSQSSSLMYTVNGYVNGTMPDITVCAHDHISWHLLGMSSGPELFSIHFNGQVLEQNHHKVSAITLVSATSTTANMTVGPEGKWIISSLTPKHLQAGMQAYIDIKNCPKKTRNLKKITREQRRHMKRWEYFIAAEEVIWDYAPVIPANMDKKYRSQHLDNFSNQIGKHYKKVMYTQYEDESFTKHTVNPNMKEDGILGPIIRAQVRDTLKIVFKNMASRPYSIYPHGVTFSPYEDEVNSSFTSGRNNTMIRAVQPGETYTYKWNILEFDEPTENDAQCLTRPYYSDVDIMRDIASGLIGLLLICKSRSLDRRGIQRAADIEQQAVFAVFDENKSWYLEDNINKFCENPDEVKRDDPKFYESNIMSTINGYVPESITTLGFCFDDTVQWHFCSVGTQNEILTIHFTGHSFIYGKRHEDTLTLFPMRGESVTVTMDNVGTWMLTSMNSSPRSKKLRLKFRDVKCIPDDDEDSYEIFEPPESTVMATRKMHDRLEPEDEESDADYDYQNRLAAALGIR
Sequence of prothrombinase (P12259 1574-2224 partner): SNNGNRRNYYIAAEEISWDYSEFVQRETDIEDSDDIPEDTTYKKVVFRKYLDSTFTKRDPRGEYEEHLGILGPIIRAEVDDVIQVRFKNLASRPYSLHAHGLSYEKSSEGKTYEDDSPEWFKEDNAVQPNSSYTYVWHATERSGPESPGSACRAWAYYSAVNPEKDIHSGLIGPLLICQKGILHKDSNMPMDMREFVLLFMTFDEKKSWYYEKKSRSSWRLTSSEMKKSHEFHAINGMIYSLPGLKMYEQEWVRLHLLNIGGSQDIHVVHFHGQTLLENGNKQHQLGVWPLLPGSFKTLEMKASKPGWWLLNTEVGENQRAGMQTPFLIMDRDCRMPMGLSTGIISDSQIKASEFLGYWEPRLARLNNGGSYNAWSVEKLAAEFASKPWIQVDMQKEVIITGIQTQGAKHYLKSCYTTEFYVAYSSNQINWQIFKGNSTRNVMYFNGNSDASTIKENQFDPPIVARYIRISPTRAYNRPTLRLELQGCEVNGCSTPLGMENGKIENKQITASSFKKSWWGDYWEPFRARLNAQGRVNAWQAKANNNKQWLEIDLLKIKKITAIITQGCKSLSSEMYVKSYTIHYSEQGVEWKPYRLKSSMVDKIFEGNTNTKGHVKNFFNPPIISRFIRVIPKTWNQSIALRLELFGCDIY

As for `O=C(NC[C@H]1CN(c2ccc(N3CCOCC3=O)cc2)C(=O)O1)c1ccc(Cl)s1` [rivaroxaban], the water solubility entry in data set [1] is given as “limited”.

In the case of `COc1ccc(-n2nc(C(N)=O)c3c2C(=O)N(c2ccc(N4CCCCC4=O)cc2)CC3)cc1` [Apixaban, apixaban], the “mean elimination t½” value in data set [2] was 8 to 15 h.

With `COc1ccc(-n2nc(C(N)=O)c3c2C(=O)N(C2CCN(C4CCNC4=O)CC2)CC3)cc1` (single isomer, unassigned) [Example 8b, 1-(4-Methoxyphenyl)-7-oxo-6-(1-(2-oxopyrrolidin-3-yl)piperidin-4-yl)-4,5,6,7-tetrahydro-1H-pyrazolo[3,4-c]pyridine-3-carboxamide], the Ki (usually a measure of affinity in units of concentration, obtained from inhibition or displacement) is 10 to 50 nM in data set [3]; no more than 10 nM in data set [4]; 10 to 50 nM in data set [5]; no less than 1000 nM in data set [6]; no less than 1000 nM in data set [7].
